Laboratory results: patent US7332495B2 (priority 2002, dated 2008)
Where a name gives a salt, the structure may show the parent alone.

How the values were obtained:
[1] = test system: Kunming mice; assay: Mice writhing model (acetic acid); format: in vivo; conditions: i.p. 20 mg/Kg, acetic acid 0.7% i.p. after 30 minutes, writhes in 5 minutes; for inhibition in vivo at 20 mg/kg: Mus musculus, ip, read-out: Analgesia (inhibition ratio of writhing)
Description: (§1) Kunming mice were used, with a male-female ratio of 50-50%. The test compound is administered i.p. (20 mg/Kg body weight) to the test groups, and physiological saline is administered P.O. (20 ml/Kg body weight) to the control group. After 30 minutes, acetic acid (0.7%, […] i.p.) was injected and the number of writhes was observed during a 5-minute period after acetic acid administration. The inhibition ratio of the writhing threshold was calculated. The alternating current tube is used to record the spontaneous activities for measuring sedation.
Two species of animals (mice and rats) and four types of pain testing models (i.p. 0.7% acetic acid, s.c. 5% formalin, hot plate 55° C., focused radiant heat) were used.

[2] = test system: Kunming mice; assay: Sedation: spontaneous activities recorded with alternating current tube; format: in vivo; conditions: i.p. 20 mg/Kg, spontaneous activities; for inhibition in vivo at 20 mg/kg: Mus musculus, ip
Description: as §1, with “The test compound is administered i.p. (20 mg/Kg body weight) to the test groups, and physiological saline is administered P.O. (20 ml/Kg body weight) to the control group.” left out

SMILES	melting point	further results
CC(C(=O)c1ccccc1)N1CCN(Cc2ccc(Cl)cc2)CC1 (stereo not shown) (as salt: hydrochloride)	260 to 262 °C	
COc1ccc2cc(C(=O)C(C)N3CCN(Cc4ccccc4)CC3)ccc2c1Cl (stereo not shown) (as salt: hydrochloride)	252 to 253 °C (dec.)	
COc1ccc2cc(C(=O)C(C)N3CCN(Cc4ccc5c(c4)OCO5)CC3)ccc2c1Cl (stereo not shown) (as salt: hydrochloride)	230 to 232 °C	
COc1ccc2cc(C(=O)C(C)N3CCN(Cc4ccc(N)cc4)CC3)ccc2c1Cl (stereo not shown) (as salt: hydrochloride)	206 to 208 °C	
COc1cc(CN2CCN(C(C)C(=O)c3ccc4c(Cl)c(OC)ccc4c3)CC2)cc(OC)c1OC (stereo not shown) (as salt: hydrochloride)	219 to 222 °C	
O=C(CN1CCN(Cc2ccccc2)CC1)c1ccccc1 (as salt: hydrochloride) [IV-1, N^1-benzyl-N^4-phenacyl piperazine]	238 to 239 °C	
O=C(CN1CCN(Cc2ccc(Cl)cc2)CC1)c1ccccc1 (as salt: hydrochloride) [IV-3, N^1-(4-chlorobenzyl)-N^4-phenacyl piperazine]	256 to 258 °C	
O=C(CN1CCN(Cc2ccc([N+](=O)[O-])cc2)CC1)c1ccccc1 (as salt: hydrochloride) [IV-4, N^1-(4-nitrobenzyl)-N^4-phenacyl piperazine]	236 to 238 °C	
O=C(CN1CCN(Cc2ccccc2)CC1)c1ccc(Cl)cc1 (as salt: hydrochloride) [IV-6, N^1-benzyl-N^4-(4-chlorophenacyl)piperazine]	231 to 233 °C	
O=C(CN1CCN(Cc2ccccc2)CC1)c1ccc2ccccc2c1 (as salt: hydrochloride) [IV-7, N^1-benzyl-N^4-(2-naphthoylmethyl)piperazine]	241 °C (dec.)	
COc1ccc(C(=O)CN2CCN(Cc3ccccc3)CC2)cc1 (as salt: hydrochloride) [IV-8, N^1-benzyl-N^4-(4-methoxyphenacyl)piperazine]	228 to 230 °C	
O=C(CN1CCN(Cc2ccccc2)CC1)c1ccc([N+](=O)[O-])cc1 (as salt: hydrochloride) [IV-9, N^1-benzyl-N^4-(4-nitrophenacyl)piperazine]	236 to 238 °C	
COc1ccc(CN2CCN(CC(=O)c3ccccc3)CC2)cc1 (as salt: hydrochloride) [IV-10, N^1-(4-methoxybenzyl)-N^4-phenacyl piperazine]	222 to 224 °C	
O=C(CN1CCN(Cc2cccnc2)CC1)c1ccccc1 (as salt: hydrochloride) [IV-11, N^1-(3-pyridylmethyl)-N^4-phenacyl piperazine]	225 to 226 °C	
CC(C(=O)c1ccccc1)N1CCN(Cc2ccc(N)cc2)CC1 (stereo not shown) (as salt: hydrochloride) [IV-13, N^1-(4-aminobenzyl)-N^4-(1-benzoylethyl)piperazine]	244 to 246 °C (dec.)	
O=C(CN1CCN(CCc2ccccc2)CC1)c1ccccc1 (as salt: hydrochloride) [IV-14, N^1-phenethyl-N^4-phenacyl piperazine]	238 to 240 °C	
COc1ccc(OC)c(CN2CCN(CC(=O)c3ccccc3)CC2)c1 (as salt: hydrochloride) [IV-15, N^1-(2,5-dimethoxybenzyl)-N^4-phenacyl piperazine]	238 to 240 °C	
Nc1ccc(C(=O)CN2CCN(Cc3ccccc3)CC2)cc1 (as salt: hydrochloride) [IV-16, N^1-benzyl-N^4-(4-aminophenacyl)piperazine]	286 to 288 °C	
O=C(CCN1CCN(Cc2ccccc2)CC1)c1ccccc1 (as salt: hydrochloride) [IV-17, N^1-benzyl-N^4-(2-benzoylethyl)piperazine]	230 to 232 °C	
CC(=O)Nc1ccc(C(=O)CN2CCN(Cc3ccc([N+](=O)[O-])cc3)CC2)cc1 (as salt: hydrochloride) [IV-18, N^1-(4-nitrobenzyl)-N^4-[(4-acetamido)phenacyl]piperazine]	228 to 230 °C	
O=C(CN1CCN(Cc2ccc3c(c2)OCO3)CC1)c1ccccc1 (as salt: hydrochloride) [IV-19, N^1-(3,4-methylenedioxybenzyl)-N^4-phenacyl piperazine]	240 to 241 °C	

SMILES	melting point	further results
O=C(CN1CCN(Cc2ccc(F)cc2)CC1)c1ccc(Cl)cc1 (as salt: hydrochloride) [IV-20, N^1-(4-fluorobenzyl)-N^4-(4-chlorophenacyl)piperazine]	246 to 248 °C (dec.)	
CC(=O)Nc1ccc(CN2CCN(CC(=O)c3ccccc3)CC2)cc1 (as salt: hydrochloride) [IV-21, N^1-(4-acetamidobenzyl)-N^4-phenacyl piperazine]	238 to 240 °C	
COc1ccc(CN2CCN(C(C)C(=O)c3ccc4c(Cl)c(OC)ccc4c3)CC2)cc1 (stereo not shown) (as salt: hydrochloride) [IV-31, N^1-(4-methoxybenzyl)-N^4-[1-(5-chloro-6-methoxy-2-naphthoyl)ethyl]piperazine]	222 to 224 °C	
CC(c1ccccc1)N1CCN(CC(=O)c2ccccc2)CC1 (stereo not shown) (as salt: hydrochloride) [IV-37, N^1-(1-phenylethyl)-N^4-phenacyl piperazine]	242 °C (dec.)	
C[C@H](c1ccccc1)N1CCN(CC(=O)c2ccccc2)CC1 (as salt: hydrochloride) [IV-38, N^1—(R-1-phenylethyl)-N^4-phenacyl piperazine]	230 to 232 °C	
Cc1ccc(C(=O)CN2CCN(C(C)c3ccccc3)CC2)cc1 (stereo not shown) (as salt: hydrochloride) [IV-40, N^1-(1-phenylethyl)-N^4-(4-methylphenacyl)piperazine]	230 to 232 °C	
Cc1ccc(C(=O)CN2CCN([C@H](C)c3ccccc3)CC2)cc1 (as salt: hydrochloride) [IV-41, N^1—(R-1-phenylethyl)-N^4-(4-methylphenacyl)piperazine]	231 to 232 °C	
COc1ccc2cc(C(=O)C(C)N3CCN(C(C)c4ccccc4)CC3)ccc2c1Cl (stereo not shown) (as salt: hydrochloride) [IV-43, N^1-(1-phenylethyl)-N^4-[1-(5-chloro-6-methoxy-2-naphthoyl)ethyl]piperazine]	231 to 232 °C	
COc1ccc(CN2CCN(C(C)C(=O)c3ccc4c(Cl)c(OC)ccc4c3)CC2)cc1 (stereo not shown) [IV-31, N^1-(4-methoxybenzyl)-N^4-[1-(5-chloro-6-methoxy-2-naphthoyl)ethyl]piperazine]		inhibition in vivo at 20 mg/kg [1]: 45%; inhibition in vivo at 20 mg/kg [2]: 7%
C[C@H](c1ccccc1)N1CCN(CC(=O)c2ccccc2)CC1 [IV-38, N^1—(R-1-phenylethyl)-N^4-phenacyl piperazine]		inhibition in vivo at 20 mg/kg [1]: 51%; inhibition in vivo at 20 mg/kg [2]: 99%
C[C@@H](c1ccccc1)N1CCN(CC(=O)c2ccccc2)CC1 [IV-39, N^1-(S-1-phenylethyl)-N^4-phenacyl piperazine]		Analgesia (inhibition ratio of writhing) [1]: 42%; Sedation [2]: 35%
Cc1ccc(C(=O)CN2CCN([C@H](C)c3ccccc3)CC2)cc1 [IV-41, N^1—(R-1-phenylethyl)-N^4-(4-methylphenacyl)piperazine]		inhibition in vivo at 20 mg/kg [1]: 60%; inhibition in vivo at 20 mg/kg [2]: 72%
Cc1ccc(C(=O)CN2CCN([C@@H](C)c3ccccc3)CC2)cc1 [IV-42, N^1-(S-1-phenylethyl)-N^4-(4-methylphenacyl)piperazine]		Analgesia (inhibition ratio of writhing) [1]: 44%; Sedation [2]: 0%
COc1ccc2cc(C(=O)C(C)N3CCN(C(C)c4ccccc4)CC3)ccc2c1Cl (stereo not shown) [IV-43, N^1-(1-phenylethyl)-N^4-[1-(5-chloro-6-methoxy-2-naphthoyl)ethyl]piperazine]		inhibition in vivo at 20 mg/kg [1]: 42%; inhibition in vivo at 20 mg/kg [2]: 4%
CC(C(=O)c1ccccc1)N1CCN(Cc2ccc([N+](=O)[O-])cc2)CC1 (stereo not shown) [IV-47, N^1-(4-nitrobenzyl)-N^4-(1-benzoylethyl)piperazine]		inhibition in vivo at 20 mg/kg [1]: 28.8%; inhibition in vivo at 20 mg/kg [2]: 26.4%
CC(=O)Nc1ccc(C(=O)CN2CCN(Cc3ccccc3)CC2)cc1 [IV-55, N^1-benzyl-N^4-(4-acetamidophenacyl)piperazine]		inhibition in vivo at 20 mg/kg [1]: 21%; inhibition in vivo at 20 mg/kg [2]: 52%
O=C(CN1CCN(Cc2cccc3ccccc23)CC1)c1ccccc1 [IV-58, N^1-(1-naphthalenylmethyl)-N^4-phenacyl piperazine]		Analgesia (inhibition ratio of writhing) [1]: 49%; Sedation [2]: 32%
O=C(CN1CCN(Cc2ccc3ccccc3c2)CC1)c1ccccc1 [IV-59, N^1-(2-naphthalenylmethyl)-N^4-phenacyl piperazine]		inhibition in vivo at 20 mg/kg [1]: 45%; inhibition in vivo at 20 mg/kg [2]: 0%
CC(c1ccc([N+](=O)[O-])cc1)N1CCN(CC(=O)c2ccccc2)CC1 (stereo not shown) [IV-60, N^1-[1-(4-nitrophenyl)ethyl]-N^4-phenacyl piperazine]		inhibition in vivo at 20 mg/kg [1]: 37%; inhibition in vivo at 20 mg/kg [2]: 66%
CCC(c1ccccc1)N1CCN(CC(=O)c2ccccc2)CC1 (stereo not shown) [IV-61, N^1-(1-phenylpropyl)-N^4-phenacyl piperazine]		inhibition in vivo at 20 mg/kg [1]: 6%; inhibition in vivo at 20 mg/kg [2]: 56%
O=C(CN1CCN(Cc2ccc([N+](=O)[O-])cc2)CC1)NCc1ccccc1 [IV-62, N^1-(4-nitrobenzyl)-N^4-[2-(benzylamino)-2-oxo-ethyl]piperazine]		inhibition in vivo at 20 mg/kg [1]: 64%; inhibition in vivo at 20 mg/kg [2]: 42%
